# Measurements: paper PMC5090206, “Fluselenamyl: A Novel Benzoselenazole Derivative for PET Detection of Amyloid Plaques (Aβ) in Alzheimer’s Disease” (Scientific Reports, 2016)
# Columns and labels:
# [1] = Human serum stability by radio-HPLC; type: in vitro ADME; details: 37 °C
# Description: For biomedical imaging applications, the signal is a net function of target/background ratio. In PET imaging, this signal results from detection of γ-photons arising from annihilation events of positrons and imaging resolution is also dependent upon energy associated with a given radionuclide. Resultant radioactive metabolites could also contribute to nonspecific binding or compete with the parental tracer for binding to the target. Therefore, it is also important to investigate metabolic stability of the radiotracer to explicitly confirm whether or not biochemical targeting profiles of a given tracer are driven by a parental molecular imaging probe. […]
# Binding assays were performed using previously described methods.11 Briefly, a fixed concentration (0.25 µM/well) of Aβ1–42 fibrils was incubated for 1 h at 37 °C with increasing concentrations of [18F]-9 (0.1 nM-15 nM) in 30 mM Tris-HCl pH 7.4, 0.1% BSA in a reaction volume of 150 µl. […] The exact hot:cold ([18F]-9 : 5) ratio was measured in each experiment by counting an aliquot of a sample (2 µl) of the radioligand preparation in a scintillation counter. Binding of [18F]-9 to human brain homogenates was assessed by incubating samples of insoluble fraction (1.25 µg insoluble protein/well) from AD subjects, with increasing concentrations of [18F]-9 (0.1nM-18 nM) for 1 h at 37 °C. […]
# [2] = Lipophilicity (log P); type: physicochemical; details: octanol/water
# [3] = target: Aβ plaques (Homo sapiens, UniProt P05067); assay: Ex vivo autoradiography of APP/PS1 Tg and WT mouse brain sections; type: in vivo; details: for target/reference count intensity ratio (mean ± SD): 30 min post injection, cortex and amygdala vs hypothalamus; for target/reference count intensity ratio: brain stem as reference region
# Aβ plaques, sequence (P05067 672-711 limits assumed): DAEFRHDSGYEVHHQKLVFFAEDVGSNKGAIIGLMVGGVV
# Protocol: Uptake in brain and other critical organs was analyzed in terms of percent injected dose per gram of the tissue (%ID/g) SI Table 1. For in vivo imaging of Aβ plaques, the basic pharmacokinetic model in normal brains involves a high initial penetration of the agent, accompanied by facile clearance due to lack of a binding target. […] For comparison, brain uptake ratios of [^18F]-AV-45 (2 min/2 h) and [^18F]-Florbetaben (2 min/4 h) in normal mice are 4.07 (%ID/g (brain): 2 min: 7.33 ± 1.54; 2 h: 1.80 ± 0.07; 7.33/1.80; 4.07)[10] and 5.0 (%ID/g (brain): 2 min: 4.77; 4 h: 0.95; 4.77/0.95; 5.02)[46], respectively. […] For an agent to be able to serve as an Aβ-imaging agent, literature precedents indicate that brain uptake ratio (%ID/g; the earliest time–point; 2–5 min to that of the latest time point; typically for carbon-11; 30–60 min; and F-18, 2 h) of 3.5 or above could be considered as a benchmark for ability of a given agent to cross the blood-brain barrier. Additionally, the brain uptake of a given imaging agent is also a net function of several components, such as cerebral regional blood flow, BBB permeability, plasma radiotracer concentration, and free fractions of the radiotracer in plasma and in the brain. Furthermore, the lipophilicity of a given compound also reflects a critical physicochemical trait for neuroimaging radiotracers due to its direct relationship to membrane permeability, solubility in water, and entropic contribution to binding. Literature precedents indicate that lipophilic drugs readily cross the BBB, although other chemical characteristics, including the number of hydrogen bonds, molecular weight, polar surface area and molecular size are also known to be critical traits for passive transport. […] Conversely, radiotracers that are too lipophilic can also bind plasma proteins, undergo fast metabolism, while also contributing to high nonspecific binding, such as white matter. […] For ROI analysis of the PET signal in brain section autoradiograms of transgenic mouse (Fig. 7A) and its WT counterpart (Fig. 7D), we used measured count densities in cortex and amygdala target regions and compared them with that of hypothalamus as reference region with a low plaque density as determined by Aβ immunostaining (Fig. 7B). […] Since brain stem was also devoid of plaques, we also analyzed the above target regions using brain stem as a reference region, and observed target/reference value in the transgenic to be 0.89 ± 0.1 compared to 0.45 ± 0.07 in the WT mouse. […]
structure (smiles),measurement,setting,value
CN(C)c1ncc(/C=C\c2nc3cc(OCC[18F])ccc3[se]2)cn1 [[^18F]-9],presence of parental tracer (single radio-peak) in human serum,[1],up to 3 h
same,presence of parental tracer (single radio-peak) in human serum,[1]; listed as 18F-9,3 h
same,logP,[2],1.28
same,target/reference count intensity ratio (mean ± SD),[3]; 24 months APP/PS1 transgenic mouse,1.88 ± 0.22
same,target/reference count intensity ratio,[3]; APP/PS1 transgenic mouse,0.89 ± 0.1
same,target/reference count intensity ratio (mean ± SD),[3]; WT control mouse,0.96 ± 0.12
same,target/reference count intensity ratio,[3]; WT mouse,0.45 ± 0.07
